Tests used:
[1] = system: Echis ocellatus venom metalloproteinase activity; experiment: In vitro snake venom metalloproteinase assay (quenched fluorogenic substrate), drug screen; type: biochemical; conditions: 10 μM drug, control drug
Procedure: FIG. 1. Inhibition of Echis ocellatus venom metalloproteinase activity by known matrix metalloproteinase inhibitors (MMPi) and rationally selected drugs based on their target site interactions. One microgram of whole venom per reaction was incubated with 10 μM of drug (dissolved in DMSO). Predicted metalloproteinase inhibitors were based on descriptors from a MedChemExpress commercial library and the literature. […] The percentage metalloproteinase activity was calculated from an endpoint read taken 45 minutes after substrate addition. The phospholipase inhibitor varespladib was included as a non-metalloproteinase inhibiting drug control.
The snake venom metalloproteinase activity in the presence of inhibitors or vehicle control (DMSO), was measured using a quenched fluorogenic substrate (ES010, R&D Biosystems). […] The substrate was suspended in reaction buffer (150 mM NaCl, 50 mM Tris-HCl pH 7.5). Reactions consisted of 1 μg/reaction of venom (1 μg in 15 μl PBS) co-incubated with 0.91 μl of 1 mM of inhibitor, both added using the VIAFLO 384 (Integra). […] Strong hits were determined as those with less than 20% metalloproteinase activity of the venom and mediocre hits between 20 and 50%. […]

[2] = system: SVMP activity of E. ocellatus, E. carinatus, B. asper and B. arietans venoms; experiment: In vitro kinetic fluorogenic SVMP assay (Study 2); type: biochemical
Description: FIG. 10. […] (A) SVMP activities of the five viper venoms quantified by fluorogenic assay. The data presented represent mean measurements and SEMs of area under the curves of fluorescent arbitrary units taken from three independent experimental runs. EOC, E. ocellatus; ECAR, E. carinatus; BAS, Bothrops asper, BAR, Bitis arietans; DRUS, Daboia russelii. (B) The effectiveness of metal chelators and peptidomimetic hydroxamate inhibitors at inhibiting the SVMP activity of the various viper venoms. Drug concentrations from 150 μM to 150 nM (highest to lowest dose tested) are presented. The data is expressed as percentage of the venom-only sample (100%, top dashed line). The negative control is presented as an interval (bottom dashed lines) and represents the values recorded in the PBS-only samples (expressed as percentage of venom activity), where the highest and the lowest values in each set of independent experiments are depicted. […] All data represent triplicate independent repeats with SEMs, where each technical repeat represents the mean of n≥2 technical replicates.
We used an in vitro kinetic fluorogenic assay^28 to assess the SVMP bioactivity of each venom and its inhibition by varying concentrations of the four SVMP-inhibitors.
The SVMP assay measuring metalloproteinase activity and the plasma assay measuring coagulation in the presence or absence of venoms and inhibitors were performed as previously described^28. The SVMP assay kinetically measured cleavage of a quenched fluorogenic substrate (ES010, R&D Biosystems) by venom in the presence or absence of inhibitors.
Briefly, 10 μl of the substrate (supplied as a 6.2 mM stock) was used per 5 ml reaction buffer (150 mM NaCl, 50 mM Tris-CI pH 7.5). Reactions consisted of 10 μl of venom±inhibitors in PBS and 90 μl of substrate. Venoms were used at 1 μg/reaction and final inhibitor concentrations ranged from 150 μM to 150 nM. Samples were preincubated for 30 min at 37° C. and pipetted in triplicate into 384-well plates (Greiner). Thereafter, data was collected on an Omega FLUOstar (BMG Labtech) instrument at an excitation wavelength of 320 nm and emission wavelength of 405 nm at 25° C. for 1 h. The areas under the curve (AUCs) in the 0-40 min interval were calculated for each sample using MARS data analysis software v3.31 (BMG Labtech); this time point was chosen as the time where all fluorescence curves had reached a plateau (maximum fluorescence). For comparing venom-only samples, the means of at least three independent experimental runs for each condition, expressed as AUCs (n≥3), were plotted at each inhibitor concentration with standard error of the mean (SEM). To determine inhibitor efficacy, the AUCs for each of the samples that consisted of venom+inhibitors were transformed and expressed as percentages of the venom-only sample (where the venom was 100%). The negative control (PBS only) was also expressed relative to the venom, and the variation in background was presented as an interval delineated by the lowest and highest values in the PBS-only samples across concentrations and inhibitors for a specific venom. […] However, only the latter two concentrations were sufficiently depleted of DMSO for viable use in the assay.

With `CCc1c(C(=O)C(N)=O)c2c(OCC(=O)O)cccc2n1Cc1ccccc1` [varespladib] the “inhibitory effect against venom metalloproteinase activity” value [1] was “no inhibitory effect”.

With `CNC(=O)[C@@H](NC(=O)[C@H](CC(C)C)[C@H](O)C(=O)NO)C(C)(C)C` [marimastat] the “neutralization of SVMP bioactivity” value ([2]; marimastat 150 nM-150 μM, batimastat […] and 150 nM only) was “complete in vitro neutralization”.

For `O=S(=O)(O)CC(S)CS` (stereo not shown) [DMPS, 2,3-dimercapto-1-propanesulfonic acid], the “lowest concentration effective / required to fully inhibit SVMP activities” value ([2]; concentrations tested 150 μM to 150 nM) was 15 µM and the IC50 ([2]; range across venoms, 1 μg venom/reaction, read-out: IC50s, inhibition of SVMP activity) was 290 to 4190 nM.

Reference: patent US12285408B2, “Methods and compositions for the treatment of snake bite” (priority 2021, dated 2025)
